± gives the standard deviation of the averaged measurements.

The subject of this data set is MCF7. The experiment in a line: HRG-induced Akt activation (dPAkt = log2 pAkt/Akt HRG-stimulated minus log2 pAkt/Akt basal) (log2 ratio difference); higher = stronger HRG-induced Akt(T308) phosphorylation. The settings on record: miRNA mimic concentration 10 nM; time after transfection 72 h; heregulin 10 ng/ml; stimulation time 1 h. In short, it runs like this: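 MCF7 cells ([…], 96-well plates) carrying one of 879 miRNA mimics, transfected at 10 nM final with Lipofectamine RNAiMax in two biological replicates, were stimulated after 72 h with 10 ng/ml heregulin-beta1 for 1 h or left unstimulated. Phospho-Akt(T308) and total Akt in cells fixed with 4% PFA were read by In-Cell Western on an Odyssey and corrected for column-wise fixation decay to give log2(pAkt/Akt). Heregulin-induced Akt activation is the replicate mean of stimulated minus unstimulated ratios.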
In the case of UGGAGUCCAGGAAUCUGCAUUUU, the “HRG-induced Akt activation (log2)” value was found to be 0.279 ± 0.71.
The result for UGGAGUGUGACAAUGGUGUUUG reads 2.527 ± 0.012; that for UGGAUUUCUUUGUGAAUCACCA, 1.87 ± 0.11.
Next, UGGAUUUUUGGAUCAGGGA: 2.21 ± 0.15; UGGCAGGGAGGCUGGGAGGGG: 1.63 ± 0.15.
Next, UGGCAGUGUAUUGUUAGCUGGU: 2.12 ± 0.35.
With UGGCAGUGUCUUAGCUGGUUGU, the “HRG-induced Akt activation (log2)” value is 1.99 ± 0.091.
The result for UGGCCCUGACUGAAGACCAGCAGU reads 1.11 ± 0.22; that for UGGCUCAGUUCAGCAGGAACAG, 0.611 ± 0.18; that for UGGGAACGGGUUCCGGCAGACGCUG, 1.22 ± 0.16.
On to UGGGCGUAUCUGUAUGCUA, for which the “HRG-induced Akt activation (log2)” value came out at 1.83 ± 0.1.
Next, UGGGGAGCUGAGGCUCUGGGGGUG: 1.74 ± 0.26; UGGGUCUUUGCGGGCGAGAUGA: 1.89 ± 0.21.
The result for UGGGUGGUCUGGAGAUUUGUGC reads 1.58 ± 0.13.
Next, UGGGUUCCUGGCAUGCUGAUUU: 1.27 ± 0.13; UGGGUUUACGUUGGGAGAACU: 1.44 ± 0.096.
For the sequence UGGUAGACUAUGGAACGUAGG, the “HRG-induced Akt activation (log2)” value was 0.953 ± 0.95.
For UGGUCUAGGAUUGUUGGAGGAG, the “HRG-induced Akt activation (log2)” value turned out to be 1.61 ± 0.078.
For UGGUGCGGAGAGGGCCCACAGUG, the “HRG-induced Akt activation (log2)” value turned out to be 0.984 ± 0.11.
Next, UGGUGGGCACAGAAUCUGGACU: 1.74 ± 0.12; UGGUGGGCCGCAGAACAUGUGC: 1.74 ± 0.035.
On to UGGUGGUUUACAAAGUAAUUCA, for which the “HRG-induced Akt activation (log2)” value turned out to be 1.29 ± 0.11.
Next, UGGUUCUAGACUUGCCAACUA: 1.94 ± 0.026; UGGUUGACCAUAGAACAUGCGC: 1.2 ± 0.092; UGGUUGUAGUCCGUGCGAGAAUA: 1.37 ± 0.19.
Next, UGGUUUACCGUCCCACAUACAU: 0.811 ± 0.33; UGUAAACAUCCCCGACUGGAAG: 0.646 ± 0.057; UGUAAACAUCCUACACUCAGCU: 0.757 ± 0.3.
The result for UGUAAACAUCCUACACUCUCAGC reads 0.867 ± 0.099; that for UGUAAACAUCCUCGACUGGAAG, 1.22 ± 0.25.
As for UGUAAACAUCCUUGACUGGAAG, the “HRG-induced Akt activation (log2)” value worked out at 1.12 ± 0.049.
Regarding UGUAACAGCAACUCCAUGUGGA, the “HRG-induced Akt activation (log2)” value came out at 0.984 ± 0.7.
Next, UGUAGUGUUUCCUACUUUAUGGA: 1.77 ± 0.26; UGUCACUCGGCUCGGCCCACUAC: 1.17 ± 0.18.
The result for UGUCAGUUUGUCAAAUACCCCA reads 1.28 ± 0.73.
On to UGUCUACUACUGGAGACACUGG, for which the “HRG-induced Akt activation (log2)” value turned out to be 2.12 ± 0.15.
The result for UGUCUCUGCUGGGGUUUCU reads 1.89 ± 0.58.
The result for UGUCUGCCCGCAUGCCUGCCUCU reads 2.32 ± 0.13; that for UGUCUUACUCCCUCAGGCACAU, 1.47 ± 0.054.
Regarding UGUCUUGCAGGCCGUCAUGCA, the “HRG-induced Akt activation (log2)” value stood at 1.68 ± 0.5.
Consider UGUGACAGAUUGAUAACUGAAA, for which the “HRG-induced Akt activation (log2)” value is 1.84 ± 0.056.
The result for UGUGACUGGUUGACCAGAGGGG reads 1.6 ± 0.2; that for UGUGAGGUUGGCAUUGUUGUCU, 2.02 ± 0.55; that for UGUGCAAAUCCAUGCAAAACUGA, 0.657 ± 0.2.
Next, UGUGCAAAUCUAUGCAAAACUGA: 0.8263 ± 0.0053.
Take UGUGCGCAGGGAGACCUCUCCC: the “HRG-induced Akt activation (log2)” value turned out to be 0.835 ± 0.095.
The result for UGUGCUUGCUCGUCCCGCCCGCA reads 1.82 ± 0.029; that for UGUGUCACUCGAUGACCACUGU, 2.42 ± 0.089.
The result for UGUUCAUGUAGAUGUUUAAGC reads 1.08 ± 0.15; that for UGUUUUGAUAACAGUAAUGU, 1.44 ± 0.064.
The result for UUAAGACUUGCAGUGAUGUUU reads 1.25 ± 0.66; that for UUAAUAUCGGACAACCAUUGU, 1.72 ± 0.21; that for UUAAUGCUAAUCGUGAUAGGGGU, 0.789 ± 0.062.
UUACAGUUGUUCAACCAGUUACU: the “HRG-induced Akt activation (log2)” value came to 1.44 ± 0.019.
Next, UUAGGCCGCAGAUCUGGGUGA: 1.39 ± 0.89.
The result for UUAGGGCCCUGGCUCCAUCUCC reads 1.954 ± 0.014.

The values above are taken from the supplement of paper PMC4314810.
